Measured values taken from patent US9409976B2, “CDIM binding proteins and uses thereof” (IGM BIOSCIENCES, INC., priority 2012, dated 2016).
Read-outs that look alike come from different tables or passages of the source.

Key:
[1] = system: B cells; assay: Combination of agents with CDIM binding proteins, cytotoxicity to B cells; assay type: cell-based
[2] = system: human pro-B cell line NALM-6; assay: Cytotoxicity resulting from cellular binding, propidium iodine uptake; assay type: cell-based; conditions: NALM-6 cells, viability after 1 hour of staining
Procedure: This example describes how the cytotoxicity of the CDIM binding proteins was investigated. The human pro-B cell line NALM-6 was stained identically as described in FIG. 6A above. In FIG. 6B, cell killing was evaluated by measuring cell viability after 1 hour of staining. […] Results are shown as raw data with % viability on Y-axis and concentration (μg/100 μl) on X-axis.
Identical results were graphed using GraphPad analysis program and data fit using non-linear regression curve fitting. The EC50 was calculated for each antibody using the same approach described above. EC50 (μg/100 μl) for each antibody was (a) 3.0 for IGM1, (b) 0.6 for IGM 23, (c) 0.6 for IGM34, and (d) 0.3 for IGM36.

[3] = system: CDIM antigen on human pro-B cell line NALM-6; assay: Binding of CDIM binding proteins to CDIM antigen on NALM-6 cells, flow cytometry (MFI); conditions: 1 hour on ice, non-linear regression curve fit
Procedure: This example describes how the binding properties of the disclosed antibodies were investigated. The antibodies were prepared by affinity chromatography. In FIG. 6A, the human pro-B cell line, NALM-6, which expresses the CDIM antigen on the cell surface was stained with the series of recombinant IgM antibodies. The antibodies were used to determine the dose response beginning at 20 μg/tube diluted stepwise by 2, to a final concentration at 0.039 μg. Cells were stained in a 100 μl volume in 3% FBS/PBS on ice for 1 hour followed by a subsequent staining with DyLight-488 conjugated anti-human IgM (Jackson Immuno), 1 μg/ml for 20 minutes at 4 C.
Analysis of CDIM binding was performed on FACScan flow cytometer using CellQuest analysis software. Results are shown as raw data points with Mean Fluorescence Intensity (MFI) on Y-axis and concentration of primary antibody (μg/100 μl) on X-axis.
The data were re-analyzed using GraphPad analysis program to fit the results using non-linear regression curve fit. EC50 (μg/100 μl) for each antibody was (a) 10.6 for IGM1, (b) 2.2 for IGM23, (c) 2.2 for IGM34, and (d) 1.7 for IGM36.

[4] = combination with CDIM binding proteins

Molecule | Effect of combination with CDIM binding proteins [1, 4] | other results
COC(=O)Nc1nc2ccc(C(=O)c3cccs3)cc2[nH]1 [Nocodazole] | Synergistic Effect | 
CC(=O)O[C@H]1C(=O)[C@@]2(C)[C@H]([C@H](OC(=O)c3ccccc3)[C@]3(O)C[C@H](OC(=O)[C@H](O)[C@@H](NC(=O)c4ccccc4)c4ccccc4)C(C)=C1C3(C)C)[C@]1(OC(C)=O)CO[C@@H]1C[C@@H]2O [Paclitaxel (Taxol), Paclitaxel] | Possible/Undermined | 
COc1cc([C@@H]2c3cc4c(cc3[C@@H](O[C@@H]3O[C@@H]5CO[C@@H](C)O[C@H]5[C@H](O)[C@H]3O)[C@H]3COC(=O)[C@H]23)OCO4)cc(OC)c1O [Etoposide (VP-16), Etoposide] | Additive Effect | 
COc1cc2c(c(OC)c1OC)-c1ccc(OC)c(=O)cc1[C@@H](NC(C)=O)CC2 [Colchisine] | Synergistic Effect | 
Nc1ccn([C@@H]2O[C@H](CO)[C@@H](O)[C@@H]2O)c(=O)n1 [Ara-C (Cytarabine), Cytarabine] | Additive Effect | 
COc1cccc2c1C(=O)c1c(O)c3c(c(O)c1C2=O)C[C@@](O)(C(C)=O)C[C@@H]3O[C@H]1C[C@H](N)[C@H](O)[C@H](C)O1 [Daunorubicin] |  | Effect of combination with CDIM binding proteins [1]: Additive Effect
CC[C@]1(O)C[C@H]2CN(CCc3c([nH]c4ccccc34)[C@@](C(=O)OC)(c3cc4c(cc3OC)N(C=O)[C@H]3[C@@](O)(C(=O)OC)[C@H](OC(C)=O)[C@]5(CC)C=CCN6CC[C@]43[C@@H]65)C2)C1 [Vincristine] | Synergistic Effect | Effect of combination with CDIM binding proteins ([1]; combination with CDIM binding proteins, listed as vincristine): enhanced degree of cytotoxicity to B cells when compared to the additive effect of each single agent alone
IGM1: IgM; heavy chain H1 (SEQ ID NO:28) with lambda light chain (SEQ ID NO:50) (antibody) heavy: QVQLQQWGAGLLKPSETLSLTCAVYGGSFSGYYWSWIRQPPGKGLEWIGEINHSGSTNYNPSLKSRVTISVDTSKNQFSLKLSSVTAADTAVYYCARGRMAWGASVNFDYWGQGTLVTVSSGSASAPTLFPLVSCENSPSDTSSVAVGCLAQDFLPDSITFSWKYKNNSDISSTRGFPSVLRGGKYAATSQVLLPSKDVMQGTDEHVVCKVQHPNGNKEKNVPLPVIAELPPKVSVFVPPRDGFFGNPRKSKLICQATGFSPRQIQVSWLREGKQVGSGVTTDQVQAEAKESGPTTYKVTSTLTIKESDWLSQSMFTCRVDHRGLTFQQNASSMCVPDQDTAIRVFAIPPSFASIFLTKSTKLTCLVTDLTTYDSVTISWTRQNGEAVKTHTNISESHPNATFSAVGEASICEDDWNSGERFTCTVTHTDLPSPLKQTISRPKGVALHRPDVYLLPPAREQLNLRESATITCLVTGFSPADVFVQWMQRGQPLSPEKYVTSAPMPEPQAPGRYFAHSILTVSEEEWNTGETYTCVVAHEALPNRVTERTVDKSTGKPTLYNVSLVMSDTAGTCY light: DIQMTQSPSTLSASVGDRVTITCTGTSSDVGGYNYVSWYQQHPGKAPKLMIYGVSNRFSGSKSGNTASLTISGLAAEDEADYYCSSYTSSSTLVVFGGGTKLTVLGQPKAAPSVTLFPPSSEELQANKATLVCLISDFYPGAVTVAWKADSSPVKAGVETTTPSKQSNNKYAASSYLSLTPEQWKSHRSYSCQVTHEGSTVEKTVAPTECS |  | EC50 of cytotoxicity (% viability) [2]: 3.0 μg/100 μl; EC50 of CDIM binding (MFI) [3]: 10.6 μg/100 μl
